Measured values reported in patent publication EP4656642A1, “ESTROGEN RECEPTOR PROTEOLYSIS TARGETING CHIMERA COMPOUND AND USE THEREOF” (GAN & LEE PHARM CO., LTD, priority 2023, dated 2024).

Tests used:
Assay type in all cases: cell-based
[1] = target: T1, ERα (Homo sapiens, UniProt P03372); test: Degradation of ERα in T-47D cells (immunoblotting, 4 h); parameters: host or cells: T-47D
T1 sequence (P03372 1-595): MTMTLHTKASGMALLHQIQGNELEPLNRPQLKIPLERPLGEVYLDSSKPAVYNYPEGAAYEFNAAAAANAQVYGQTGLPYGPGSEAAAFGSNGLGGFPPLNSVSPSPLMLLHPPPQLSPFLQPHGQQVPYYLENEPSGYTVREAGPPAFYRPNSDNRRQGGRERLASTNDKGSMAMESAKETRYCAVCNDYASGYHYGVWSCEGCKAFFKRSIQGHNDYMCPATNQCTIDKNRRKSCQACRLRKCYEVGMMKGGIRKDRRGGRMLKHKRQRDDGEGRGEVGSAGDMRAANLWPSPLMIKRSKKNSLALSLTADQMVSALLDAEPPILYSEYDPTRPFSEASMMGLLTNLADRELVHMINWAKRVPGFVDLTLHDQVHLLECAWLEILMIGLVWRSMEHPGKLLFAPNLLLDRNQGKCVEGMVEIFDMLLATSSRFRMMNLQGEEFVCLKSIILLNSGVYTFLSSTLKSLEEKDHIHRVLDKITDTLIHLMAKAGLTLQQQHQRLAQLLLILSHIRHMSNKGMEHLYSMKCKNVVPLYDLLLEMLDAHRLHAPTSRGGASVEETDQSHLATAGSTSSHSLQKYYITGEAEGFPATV
Method in brief: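 T-47D cells were treated with compound (final 0.15-1000 nM, DMSO) for 4 h at 37°C, 5% CO2. Cells were lysed in RIPA buffer with protease inhibitor, and ERα protein in the cleared lysate was measured by immunoblotting.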

[2] = target: T1, ERα; test: Degradation of ERα in MCF-7 cells (immunoblotting, 4 h)
Method in brief: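 MCF-7 cells treated 4 h at 37°C with compounds at 0.15-1000nM final. ERα in lysates measured by immunoblot, with band grayscale normalized to an internal reference protein. Degradation rate calculated against DMSO-treated control.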

[3] = test system: MCF-7 cells; test: Inhibition of cell proliferation of MCF-7 cells (CCK-8, 9 days); settings: treated for 9 days, CCK-8 kit (Table 6)
Method in brief: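 MCF-7 cells seeded at 800 cells/well in DMEM with 10% FBS, exposed to a range of compound concentrations for 9 days at 37°C, 5% CO2. Viability read by CCK-8; IC50 derived for proliferation inhibition.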

[4] = test system: T-47D cells; test: Inhibition of cell proliferation in T-47D cells (CCK-8, 6 days); settings: 6 days of treatment, Table 3
Method in brief: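 T-47D cells at 3,000 cells/well in RPMI 1640 with 10% FBS were exposed to a concentration series of PROTAC compounds for 6 days at 37 °C, 5% CO2. Viability was read by CCK-8, and IC50 values were derived for proliferation inhibition.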

Row | Compound | Degradation rate (%) of ERα in T-47D cells ([1]; 1nM compound) | Degradation rate (%) of ERα in T-47D cells ([1]; 10nM compound) | Degradation rate (%) of ERα in MCF-7 cells ([2]; 1nM compound) | Degradation rate (%) of ERα in MCF-7 cells ([2]; 10nM compound) | IC50 [3] | IC50 [4]
1 | O=C1CCC(N2Cc3c(ccc4c3OCC43CCN(C4CCN(C(=O)C5(F)CCN(c6ccc([C@@H]7c8ccc(O)cc8CC[C@@H]7c7ccccc7)cc6)CC5)CC4)CC3)C2=O)C(=O)N1 (stereo partly drawn) [A89] | 40% | 70% | 48% | 72% | 110 nM | 2.16 nM
2 | C[C@@H]1CC2(CCN(c3ccc([C@@H]4c5ccc(O)cc5CC[C@@H]4c4ccccc4)cc3)CC2)CN1CC(=O)N1CCC2(CC1)COc1c2ccc2c1CN(C1CCC(=O)NC1=O)C2=O (stereo partly drawn) [A90] | 42% | 79% | 50% | 72% | 52.8 nM | 1.78 nM
3 | CC(C)(C(=O)N1CCC2(CC1)COc1c2ccc2c1CN(C1CCC(=O)NC1=O)C2=O)N1CCC2(CCN(c3ccc([C@@H]4c5ccc(O)cc5CC[C@@H]4c4ccccc4)cc3)CC2)C1 (stereo partly drawn) [A91] | -1% | 49% | 2% | 33% | 325 nM | 1.11 nM
4 | O=C1CCC(N2Cc3ccc4c(c3C2=O)OCC42CCN(C(=O)CN3CCC4(CCN(c5ccc([C@@H]6c7ccc(O)cc7CC[C@@H]6c6ccccc6)cc5)CC4)C3)CC2)C(=O)N1 (stereo partly drawn) [A92] | 48% | 66% | 36% | 66% | 11.6 nM | 1.34 nM
5 | O=C1CCC(N2Cc3ccc4c(c3C2=O)OCC42CCN(C3CCN(C(=O)C4(F)CCN(c5ccc([C@@H]6c7ccc(O)cc7CC[C@@H]6c6ccccc6)cc5)CC4)CC3F)CC2)C(=O)N1 (stereo partly drawn) [A93] | 26% | 71% | 31% | 69% | 10.5 nM | 1.85 nM
6 | O=C1CCC(N2Cc3ccc4c(c3C2=O)OCC42CCN(C3CCN(C(=O)C4CCN(c5ccc([C@@H]6c7ccc(O)cc7CC[C@@H]6c6ccccc6)cc5)CC4)CC3)CC2)C(=O)N1 (stereo partly drawn) [A94] | 54% | 80% | 22% | 48% | 45 nM | 2.74 nM
7 | CCC(C(=O)N1CCC2(CC1)COc1c2ccc2c1CN(C1CCC(=O)NC1=O)C2=O)N1CCC2(CCN(c3ccc([C@@H]4c5ccc(O)cc5CC[C@@H]4c4ccccc4)cc3)CC2)C1 (stereo partly drawn) [A95] | 52% | 68% | 42% | 48% | 201 nM | 1.49 nM
8 | C[C@@H]1CN(C(=O)C2(F)CCN(c3ccc([C@@H]4c5ccc(O)cc5CC[C@@H]4c4ccccc4)cc3)CC2)CCC1N1CCC2(CC1)COc1c2ccc2c1CN(C1CCC(=O)NC1=O)C2=O (stereo partly drawn) [A96] | 31% | 78% | 40% | 66% | 11 nM | 3.38 nM
9 | C[C@H]1CN(C(=O)C2(F)CCN(c3ccc([C@@H]4c5ccc(O)cc5CC[C@@H]4c4ccccc4)cc3)CC2)CCC1N1CCC2(CC1)COc1c2ccc2c1CN(C1CCC(=O)NC1=O)C2=O (stereo partly drawn) [A97] | 45% | 78% | 50% | 75% | 217 nM | 2.33 nM
10 | O=C1CCC(N2Cc3c(ccc4c3OCC43CCN(C4CCN(C5CC6(CCN(c7ccc([C@@H]8c9ccc(O)cc9CC[C@@H]8c8ccccc8)cc7)CC6)C5)[C@@H](C(=O)N5CC(F)(F)C5)C4)CC3)C2=O)C(=O)N1 (stereo partly drawn) [A98] | 51% | 83% | 48% | 90% | 5.12 nM | 1.19 nM
11 | O=C1CCC(N2Cc3c(ccc4c3OCC43CCN(C4CCN(C5CC6(CCN(c7ccc([C@@H]8c9ccc(O)cc9CC[C@@H]8c8ccccc8)cc7)CC6)C5)[C@@H](C(=O)N5CCC(F)(F)CC5)C4)CC3)C2=O)C(=O)N1 (stereo partly drawn) [A99] | 51% | 82% | 35% | 77% | 4.19 nM | 2.07 nM
12 | O=C1CCC(N2Cc3c(ccc4c3OCC43CCN(CC4CCN(C(=O)C5CCN(c6ccc([C@@H]7c8ccc(O)cc8CC[C@@H]7c7ccccc7)cc6)CC5)CC4)CC3)C2=O)C(=O)N1 (stereo partly drawn) [A100] | 77% | 84% | 65% | 73% | 2.27 nM | 0.84 nM
13 | O=C1CCC(N2Cc3c(ccc4c3OCC43CCN(C(=O)C4CCC(N5CCC(C#Cc6ccc([C@@H]7c8ccc(O)cc8CC[C@@H]7c7ccccc7)cc6)CC5)CC4)CC3)C2=O)C(=O)N1 (stereo partly drawn) [A101] | 44% | 45% | 52% | 61% | 850 nM | 0.91 nM
14 | O=C1CCC(N2Cc3c(ccc4c3OCC43CCN(CC4CCN(CC5CCN(c6ccc([C@@H]7c8ccc(O)cc8CC[C@@H]7c7ccccc7)cc6)CC5)CC4)CC3)C2=O)C(=O)N1 (stereo partly drawn) [A102] | 16% | 51% | 36% | 73% | 107 nM | 20.2 nM
15 | C[C@@H]1Cc2c([nH]c3ccccc23)[C@@H](c2c(F)cc(N3CCC4(CCC(N5CCC6(CC5)COc5c6ccc6c5CN(C5CCC(=O)NC5=O)C6=O)CC4)CC3)cc2F)N1CC(F)F (stereo partly drawn) [A103] | 29% | 68% | 37% | 70% | 13.6 nM | 2.99 nM
16 | C[C@@H]1Cc2c([nH]c3ccccc23)[C@@H](c2c(F)cc(N3CC4(CCC(N5CCC6(CC5)COc5c6ccc6c5CN(C5CCC(=O)NC5=O)C6=O)CC4)C3)cc2F)N1CC(F)F (stereo partly drawn) [A104] | 35% | 72% | 15% | 70% | 30.3 nM | 17.1 nM
17 | O=C1CCC(N2Cc3c(ccc4c3OCC43CCN(CC4(F)CCN(C(=O)C5CCN(c6ccc([C@@H]7c8ccc(O)cc8CC[C@@H]7c7ccccc7)cc6)CC5)CC4)CC3)C2=O)C(=O)N1 (stereo partly drawn) [A105] | 38% | 73% | 7% | 43% | 26600 nM | 1.3 nM
18 | C[C@@H]1Cc2c([nH]c3ccccc23)[C@@H](c2c(F)cc(N3CCC(C(=O)N4CCC(N5CCC6(CC5)COc5c6ccc6c5CN(C5CCC(=O)NC5=O)C6=O)CC4)CC3)cc2F)N1CC(F)F (stereo partly drawn) [A106] | 43% | 74% | 19% | 62% | 190 nM | 1.2 nM
19 | N#CC1(CN2CCC3(CC2)COc2c3ccc3c2CN(C2CCC(=O)NC2=O)C3=O)CCN(C(=O)C2CCN(c3ccc([C@@H]4c5ccc(O)cc5CC[C@@H]4c4ccccc4)cc3)CC2)CC1 (stereo partly drawn) [A108] | 41% | 73% | 22% | 46% | 7390 nM | 1.8 nM
20 | CC1(CN2CCC3(CC2)COc2c3ccc3c2CN(C2CCC(=O)NC2=O)C3=O)CCN(C(=O)C2CCN(c3ccc([C@@H]4c5ccc(O)cc5CC[C@@H]4c4ccccc4)cc3)CC2)CC1 (stereo partly drawn) [A109] | 31% | 75% | 10% | 54% | 42.8 nM | 2.93 nM
